Inhibition and IC50 data for 35 molecules are collected here from US7612211B2, “Benzimidazole TRPV1 inhibitors” (Janssen Pharmaceutica N.V., priority 2006, dated 2009).

The assay deals with T1, hTRPV1 (Homo sapiens, UniProt Q8NER1).
T1 construct: expressed in transfected cells; host or cells: HEK293
The assay is described as follows: Human TRPV1 (hTRPV1) functional assay, FLIPR intracellular Ca2+, capsaicin challenge. The note with it: HEK293 cells expressing hTRPV1, capsaicin 0.030 μM challenge; for inhibition at 0.2 µM: test concentration of 0.2 μm, read-out: percent inhibition (symbol b); for IC50: derived from a variety of test concentrations, read-out: IC50 value (symbol c); for inhibition at 0.5 µM: test concentration of 0.5 μm, read-out: percent inhibition (symbol a). Format: cell-based. In short, it runs like this:
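HEK293 cells expressing the channel, loaded with Calcium 3 dye, were exposed to compounds for 5 min before capsaicin 0.030 μM (~80% maximal). FLIPR Ca2+ read; IC50/EC50 from quadruplicate concentration-response, or percent inhibition at 0.5 μm or 0.2 μm.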

T1 sequence (Q8NER1 whole entry): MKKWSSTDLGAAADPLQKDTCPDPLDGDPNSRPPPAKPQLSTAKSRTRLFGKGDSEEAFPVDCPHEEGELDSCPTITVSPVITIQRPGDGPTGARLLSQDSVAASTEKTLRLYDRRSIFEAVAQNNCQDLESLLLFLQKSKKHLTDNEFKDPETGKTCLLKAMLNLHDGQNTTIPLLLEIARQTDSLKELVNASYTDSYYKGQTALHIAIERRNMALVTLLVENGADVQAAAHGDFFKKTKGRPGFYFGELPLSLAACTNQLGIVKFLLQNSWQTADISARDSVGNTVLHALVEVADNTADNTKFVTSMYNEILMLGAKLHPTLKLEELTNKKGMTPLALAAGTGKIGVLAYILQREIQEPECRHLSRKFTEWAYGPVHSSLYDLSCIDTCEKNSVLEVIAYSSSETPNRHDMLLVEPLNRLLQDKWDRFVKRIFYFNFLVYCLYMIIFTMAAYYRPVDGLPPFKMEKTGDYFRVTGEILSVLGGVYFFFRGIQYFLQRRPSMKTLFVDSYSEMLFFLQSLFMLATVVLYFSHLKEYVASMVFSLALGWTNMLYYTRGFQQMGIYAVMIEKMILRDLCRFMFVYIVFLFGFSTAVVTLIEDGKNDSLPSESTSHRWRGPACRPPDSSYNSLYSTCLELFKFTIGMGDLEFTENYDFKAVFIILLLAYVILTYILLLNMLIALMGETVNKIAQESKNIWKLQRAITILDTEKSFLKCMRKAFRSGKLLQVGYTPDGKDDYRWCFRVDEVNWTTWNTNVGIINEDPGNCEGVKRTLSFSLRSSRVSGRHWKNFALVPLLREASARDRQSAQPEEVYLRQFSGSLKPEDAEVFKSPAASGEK

As to `CC(=O)c1ccc(OCc2nc3cc(-c4ccccc4S(C)(=O)=O)ccc3[nH]2)cc1` [Cpd 79, 1-{4-[5-(2-methanesulfonyl-phenyl)-1H-benzoimidazol-2-ylmethoxy]-phenyl}-ethanone], the inhibition (as a rule, the share of the control response that was lost under treatment) at 0.2 µM is 61%.
As for `CS(=O)(=O)c1ccccc1-c1ccc2[nH]c(COc3ccc4ccccc4c3)nc2c1` [Cpd 80, 5-(2-methanesulfonyl-phenyl)-2-(naphthalen-2-yloxymethyl)-1H-benzoimidazole], the IC50 (in general, the concentration at which inhibition is half-maximal) is 14 nM and the inhibition at 0.2 µM was 99%.
As for `CCOc1ccc(OCc2nc3cc(-c4ccccc4S(C)(=O)=O)ccc3[nH]2)cc1` [Cpd 81, 2-(4-ethoxy-phenoxymethyl)-5-(2-methanesulfonyl-phenyl)-1H-benzoimidazole], the IC50 is 85 nM and the inhibition at 0.2 µM stood at 96%.
The like results for `CS(=O)(=O)c1ccccc1-c1ccc2[nH]c(COc3ccc(SC(F)(F)F)cc3)nc2c1` [Cpd 82, 5-(2-methanesulfonyl-phenyl)-2-(4-trifluoromethanesulfide-phenoxymethyl)-1H-benzoimidazole] were, in that order, 7 nM and 99%.
Turning to `CS(=O)(=O)c1ccccc1-c1ccc2[nH]c(COc3ccc(C#N)cc3)nc2c1` [Cpd 83, 4-[5-(2-methanesulfonyl-phenyl)-1H-benzoimidazol-2-ylmethoxy]-benzonitrile], the inhibition at 0.2 µM was 51%.
On the same count and under the same terms, in the case of `CS(=O)(=O)c1ccc(OCc2nc3cc(-c4ccccc4S(C)(=O)=O)ccc3[nH]2)cc1` [Cpd 85, 2-(4-methanesulfonyl-phenoxymethyl)-5-(2-methanesulfonyl-phenyl)-1H-benzoimidazole] it was 12%.
For the molecule `CS(=O)(=O)c1ccccc1-c1ccc2[nH]c(COc3ccc4c(c3)CCCC4)nc2c1` [Cpd 87, 5-(2-methanesulfonyl-phenyl)-2-(5,6,7,8-tetrahydro-naphthalen-2-yloxymethyl)-1H-benzoimidazole], the IC50 was found to be 14 nM and the inhibition at 0.2 µM stood at 96%.
Turning to `COC(=O)CCc1ccc(OCc2nc3cc(-c4ccccc4S(C)(=O)=O)ccc3[nH]2)cc1` [Cpd 88, 3-{4-[5-(2-methanesulfonyl-phenyl)-1H-benzoimidazol-2-ylmethoxy]-phenyl}-propionic acid methyl ester], the inhibition at 0.2 µM was 36%.
Take `Cc1ccc(OCc2nc3cc(-c4ccccc4S(C)(=O)=O)ccc3[nH]2)c(C)c1` [Cpd 89, 2-(2,4-dimethyl-phenoxymethyl)-5-(2-methanesulfonyl-phenyl)-1H-benzoimidazole]: the 50% inhibitory concentration (IC50) is 52 nM and the inhibition at 0.2 µM was found to be 90%.
Turning to `Cc1cc(C)cc(OCc2nc3cc(-c4ccccc4S(C)(=O)=O)ccc3[nH]2)c1` [Cpd 90, 2-(3,5-dimethyl-phenoxymethyl)-5-(2-methanesulfonyl-phenyl)-1H-benzoimidazole], the inhibition at 0.2 µM worked out at 31%.
As to `CS(=O)(=O)c1ccccc1-c1ccc2[nH]c(COc3ccc4c(c3)CCC4)nc2c1` [Cpd 91, 2-(indan-5-yloxymethyl)-5-(2-methanesulfonyl-phenyl)-1H-benzoimidazole], the IC50 came to 21 nM and the inhibition at 0.2 µM stood at 99%.
Turning to `CS(=O)(=O)c1ccccc1-c1ccc2[nH]c(COc3ccc4c(c3)OCO4)nc2c1` [Cpd 92, 2-(benzo[1,3]dioxol-5-yloxymethyl)-5-(2-methanesulfonyl-phenyl)-1H-benzoimidazole], the IC50 was 86 nM and the inhibition at 0.2 µM was 76%.
As for `CS(=O)(=O)c1ccccc1-c1ccc2[nH]c(COc3cc(Cl)cc(Cl)c3)nc2c1` [Cpd 93, 2-(3,5-dichloro-phenoxymethyl)-5-(2-methanesulfonyl-phenyl)-1H-benzoimidazole], the inhibition at 0.2 µM was found to be 11%.
On the same count and under the same terms, with `CC(=O)Nc1cccc(OCc2nc3cc(-c4ccccc4S(C)(=O)=O)ccc3[nH]2)c1` [Cpd 94, N-{3-[5-(2-methanesulfonyl-phenyl)-1H-benzoimidazol-2-ylmethoxy]-phenyl}-acetamide] the figure was 1%; with `CC(=O)Nc1ccc(OCc2nc3cc(-c4ccccc4S(C)(=O)=O)ccc3[nH]2)cc1` [Cpd 95, N-{4-[5-(2-methanesulfonyl-phenyl)-1H-benzoimidazol-2-ylmethoxy]-phenyl}-acetamide], 1%; with `COc1ccc(OCc2nc3cc(-c4ccccc4S(C)(=O)=O)ccc3[nH]2)cc1` [Cpd 96, 5-(2-methanesulfonyl-phenyl)-2-(4-methoxy-phenoxymethyl)-1H-benzoimidazole], 6%.
On the same count and under the same terms, with `COc1cccc(OCc2nc3cc(-c4ccccc4S(C)(=O)=O)ccc3[nH]2)c1` [Cpd 97, 5-(2-methanesulfonyl-phenyl)-2-(3-methoxy-phenoxymethyl)-1H-benzoimidazole] the figure was 42%.
In the case of `CS(=O)(=O)c1cccc(-c2ccc3[nH]c(COc4ccc(C(F)(F)F)cc4)nc3c2)c1` [Cpd 99, 5-(3-methanesulfonyl-phenyl)-2-(4-trifluoromethyl-phenoxymethyl)-1H-benzoimidazole], the inhibition at 0.5 µM was 14%.
For the molecule `CS(=O)(=O)c1ccc(-c2ccc3[nH]c(COc4ccc(C(F)(F)F)cc4)nc3c2)cc1` [Cpd 100, 5-(4-methanesulfonyl-phenyl)-2-(4-trifluoromethyl-phenoxymethyl)-1H-benzoimidazole], the inhibition at 0.5 µM came to 13%.
For `CS(=O)(=O)Nc1cccc(-c2ccc3[nH]c(COc4ccc(C(F)(F)F)cc4)nc3c2)c1` [Cpd 102, N-{3-[2-(4-trifluoromethyl-phenoxymethyl)-1H-benzoimidazol-5-yl]-phenyl}-methanesulfonamide], the inhibition at 0.5 µM came to 8%.
The same measure, in the same setting: in the case of `CS(=O)(=O)Nc1ccc(-c2ccc3[nH]c(COc4ccc(C(F)(F)F)cc4)nc3c2)cc1` [Cpd 103, N-{4-[2-(4-trifluoromethyl-phenoxymethyl)-1H-benzoimidazol-5-yl]-phenyl}-methanesulfonamide] it was 7%; in that of `NS(=O)(=O)c1cccc(-c2ccc3[nH]c(COc4ccc(C(F)(F)F)cc4)nc3c2)c1` [Cpd 104, 3-[2-(4-trifluoromethyl-phenoxymethyl)-1H-benzoimidazol-5-yl]-benzenesulfonamide], 8%; in that of `NS(=O)(=O)c1ccc(-c2ccc3[nH]c(COc4ccc(C(F)(F)F)cc4)nc3c2)cc1` [Cpd 105, 4-[2-(4-trifluoromethyl-phenoxymethyl)-1H-benzoimidazol-5-yl]-benzenesulfonamide], 7%.
As for `CN(C)S(=O)(=O)c1ccccc1-c1ccc2[nH]c(COc3ccc(C(F)(F)F)cc3)nc2c1` [Cpd 106, N,N-dimethyl-2-[2-(4-trifluoromethyl-phenoxymethyl)-1H-benzoimidazol-5-yl]-benzenesulfonamide], the IC50 came out at 3 nM and the inhibition at 0.5 µM turned out to be 94%.
As to `Cc1ccccc1-c1ccc2[nH]c(COc3ccc(C(F)(F)F)cc3)nc2c1` [Cpd 107, 5-o-tolyl-2-(4-trifluoromethyl-phenoxymethyl)-1H-benzoimidazole], the inhibition at 0.5 µM stood at 16%.
Still for that read-out and setting: with `Cc1cccc(-c2ccc3[nH]c(COc4ccc(C(F)(F)F)cc4)nc3c2)c1` [Cpd 108, 5-m-tolyl-2-(4-trifluoromethyl-phenoxymethyl)-1H-benzoimidazole] the figure was 10%; with `Cc1ccc(-c2ccc3[nH]c(COc4ccc(C(F)(F)F)cc4)nc3c2)cc1` [Cpd 109, 5-p-tolyl-2-(4-trifluoromethyl-phenoxymethyl)-1H-benzoimidazole], 3%.
Consider `CC(O)c1ccccc1-c1ccc2[nH]c(COc3ccc(C(F)(F)F)cc3)nc2c1` (stereo not drawn) [Cpd 110, 1-{2-[2-(4-trifluoromethyl-phenoxymethyl)-1H-benzoimidazol-5-yl]-phenyl}-ethanol], for which the IC50 stood at 58 nM and the inhibition at 0.5 µM is 98%.
`CC(O)c1cccc(-c2ccc3[nH]c(COc4ccc(C(F)(F)F)cc4)nc3c2)c1` (stereo not drawn) [Cpd 111, 1-{3-[2-(4-trifluoromethyl-phenoxymethyl)-1H-benzoimidazol-5-yl]-phenyl}-ethanol]: the inhibition at 0.5 µM worked out at 18%.
On the same count and under the same terms, with `CC(O)c1ccc(-c2ccc3[nH]c(COc4ccc(C(F)(F)F)cc4)nc3c2)cc1` (stereo not drawn) [Cpd 112, 1-{4-[2-(4-trifluoromethyl-phenoxymethyl)-1H-benzoimidazol-5-yl]-phenyl}-ethanol] the figure was 1%; with `CC(=O)Nc1ccccc1-c1ccc2[nH]c(COc3ccc(C(F)(F)F)cc3)nc2c1` [Cpd 113, N-{2-[2-(4-trifluoromethyl-phenoxymethyl)-1H-benzoimidazol-5-yl]-phenyl}-acetamide], 42%; with `CC(=O)Nc1cccc(-c2ccc3[nH]c(COc4ccc(C(F)(F)F)cc4)nc3c2)c1` [Cpd 114, N-{3-[2-(4-trifluoromethyl-phenoxymethyl)-1H-benzoimidazol-5-yl]-phenyl}-acetamide], 6%.
Consider `CC(=O)Nc1ccc(-c2ccc3[nH]c(COc4ccc(C(F)(F)F)cc4)nc3c2)cc1` [Cpd 115, N-{4-[2-(4-trifluoromethyl-phenoxymethyl)-1H-benzoimidazol-5-yl]-phenyl}-acetamide], for which the inhibition at 0.5 µM stood at 14%.
Turning to `OCc1ccccc1-c1ccc2[nH]c(COc3ccc(C(F)(F)F)cc3)nc2c1` [Cpd 116, {2-[2-(4-trifluoromethyl-phenoxymethyl)-1H-benzoimidazol-5-yl]-phenyl}-methanol], the IC50 came out at 8.1 nM and the inhibition at 0.5 µM was found to be 99%.
`OCc1cccc(-c2ccc3[nH]c(COc4ccc(C(F)(F)F)cc4)nc3c2)c1` [Cpd 117, {3-[2-(4-trifluoromethyl-phenoxymethyl)-1H-benzoimidazol-5-yl]-phenyl}-methanol]: the inhibition at 0.5 µM was 13%.
